This note sets out measurements from ChEMBL document CHEMBL4177524, “Discovery of hepatitis B virus capsid assembly inhibitors leading to a heteroaryldihydropyrimidine based clinical candidate (GLS4)” (Bioorg Med Chem, 2017).

Data set [1] relates to Hepatitis B virus. Briefly: Antiviral activity against entecavir-resistant wild type hepatitis B virus infected in human Huh7 cells assessed as reduction in secreted DNA levels measured on day 7 by real-time PCR analysis. The format is functional, organism-based. Conditions: Huh-7, 168 h.
In data set [2] the test system is Hepatitis B virus. Nature of the data set: Antiviral activity against entecavir-resistant hepatitis B virus harboring reverse transcriptase M204I/S202G double mutant infected in human Huh7 cells assessed as reduction in intracellular DNA levels measured on day 7 by real-time PCR analysis. The class given is functional, organism-based. Conditions: Huh-7, 168 h.
The nature of data set [3]: Cytotoxicity in human HepG2.215 cells assessed as reduction in cell viability after 5 days by CCK8 assay. The format is cell-based, HepG2 2.2.15. Conditions: HepG2.2.15 cells.
Data set [4] has as its system Hepatitis B virus. Briefly: Antiviral activity against entecavir-resistant hepatitis B virus harboring reverse transcriptase M204I/S202G double mutant infected in human Huh7 cells assessed as reduction in secreted DNA levels measured on day 7 by real-time PCR analysis. The class given is functional, organism-based. Conditions: Huh-7, 168 h.
Data set [5] relates to Hepatitis B virus. Nature of the data set: Antiviral activity against entecavir-resistant hepatitis B virus harboring reverse transcriptase M204I/S202G/M250V triple mutant infected in human Huh7 cells assessed as reduction in intracellular DNA levels measured on day 7 by real-time PCR analysis. The class given is functional, organism-based. Conditions: Huh-7, 168 h.
For data set [6], the system named is Hepatitis B virus. Nature of the data set: Antiviral activity against entecavir-resistant wild type hepatitis B virus infected in human Huh7 cells assessed as reduction in intracellular DNA levels measured on day 7 by real-time PCR analysis. The class given is functional, organism-based. As to conditions: Huh-7, 168 h.
For data set [7], the system named is Hepatitis B virus. Briefly: Antiviral activity against entecavir-resistant hepatitis B virus harboring reverse transcriptase M204I/S202G/M250V triple mutant infected in human Huh7 cells assessed as reduction in secreted DNA levels measured on day 7 by real-time PCR analysis. The class given is functional, organism-based. As to conditions: Huh-7, 168 h.

On to `C=C1[C@H](CO)[C@@H](O)C[C@@H]1n1cnc2c(=O)[nH]c(N)nc21`, for which the EC50 in data set [1] is 0.014 µM; in data set [2], above 20 µM; in data set [4] it was above 20 µM; in data set [5] it was above 20 µM; in data set [6], 0.013 µM; in data set [7], above 20 µM. The CC50 at 120 h in data set [3] is 30 µM.
